The values that follow come from patent US20150080438A1, “6,7-Dihydro-5H-benzo[7]annulene derivatives, processes for their preparation, pharmaceutical products comprising them and their use for preparing medicaments” (Bayer Intellectual Property GmbH, priority 2011, published 2015).

In data set [1] the target is T1, oestrogen receptor (ER) (Homo sapiens, UniProt P03372).
T1 construct: These MVLN cells express, along with the functional oestrogen receptor (ER), a reporter construct; endogenous in cells; host or cells: MVLN cells (MCF7 derivative with ER-responsive luciferase reporter)
T1 sequence (P03372 1-595): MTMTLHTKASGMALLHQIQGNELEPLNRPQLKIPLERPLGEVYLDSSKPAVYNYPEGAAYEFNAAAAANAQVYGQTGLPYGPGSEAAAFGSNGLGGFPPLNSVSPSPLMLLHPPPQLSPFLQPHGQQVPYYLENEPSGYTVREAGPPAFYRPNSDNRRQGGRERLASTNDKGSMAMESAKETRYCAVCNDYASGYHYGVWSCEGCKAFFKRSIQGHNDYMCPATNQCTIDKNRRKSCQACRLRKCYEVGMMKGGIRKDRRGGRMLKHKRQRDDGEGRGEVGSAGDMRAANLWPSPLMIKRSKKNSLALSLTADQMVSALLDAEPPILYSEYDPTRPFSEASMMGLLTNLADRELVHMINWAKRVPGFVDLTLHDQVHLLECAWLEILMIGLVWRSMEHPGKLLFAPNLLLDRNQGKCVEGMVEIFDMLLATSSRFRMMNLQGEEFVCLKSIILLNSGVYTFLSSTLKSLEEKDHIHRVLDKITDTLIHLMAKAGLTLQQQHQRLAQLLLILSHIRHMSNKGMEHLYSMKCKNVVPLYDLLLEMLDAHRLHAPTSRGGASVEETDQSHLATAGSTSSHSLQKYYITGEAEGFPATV
Briefly: Anti-oestrogenic action in MVLN cells (inhibition of estradiol-induced luciferase, transactivation antagonism). The following applies: inhibition of estradiol-induced luciferase activity, read-out: Anti-oestrogenic action in vitro: MVLN transactivation antagonism IC50. In kind it is cell-based. Summed up: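 MCF7-derived MVLN cells carrying an ER-driven luciferase reporter; test compounds applied with estradiol, and anti-oestrogenic action scored as inhibition of the estradiol-induced luciferase signal.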

The test system of data set [2] is uterus growth induced by 17β-estradiol. Briefly: Anti-uterus growth test in the adult rat. In kind it is in vivo. The following applies: sc; ovariectomized adult rat, 0.3 mg/kg s.c. d1-d3 with 1.5 μg/kg/day 17β-estradiol; percentage inhibition of uterus growth; read-out: Anti-oestrogenic activity in vivo in % at a dose of 0.3 mg/kg (rat). An excerpt:
The uterus of oestrogen-substituted rats can be used as a test model for detecting a direct action of substances with anti-oestrogenic properties. The parameter of oestrogenic action is estradiol-induced uterus growth in rats, which is inhibited by simultaneous administration of a substance with anti-oestrogenic action. The experimental animals (n=5-6 animals/group) were ovariectomized before the start of the test, to rule out the influence of endogenous oestrogens. After a phase of 6 to 10 days, the test substances are administered s.c. on 3 consecutive days (d1-d3) in combination with a substitution dose of 1.5 μg/kg/day of 17β-estradiol. 17β-estradiol alone serves as positive control, and the excipients serve as negative control. On day 4 (d4) the animals are killed, and the uteri and vaginae are removed and weighed. The organ weights are converted to mg/100 g body weight, then the mean value and the standard deviation are calculated for each dosage. The inhibition of uterus or vaginal growth induced by 17β-estradiol is shown as percentage inhibition. The selected claimed substances were investigated in adult female rats as described for their anti-oestrogenic, inhibitory action on the weight of the uterus. At the dosage used, the substances show a marked anti-oestrogenic action in vivo (Table 3 and Table 4).

For data set [3], the system named is ovarian estradiol synthesis. Briefly: Stimulation of ovarian oestrogen synthesis (HPG axis) in hormonally intact adult rats. It is filed as in vivo, rat. The following applies: 3 mg/kg daily for 10 days, quotient of peripheral estradiol values after and before treatment. An excerpt:
The clinical use both of pure anti-oestrogens and of various SERMs for the treatment of premenopausal women is limited by their property of stimulating the ovaries through activation of the hypothalamic-pituitary-gonadal axis (HPG axis), which leads to the increase in peripheral estradiol levels (Palomba, S., Orio, F., Jr., Morelli, M., Russo, T., Pellicano, M., Zupi, E., Lombardi, G., Nappi, C., Panici, P. L., and Zullo, F. (2002). Raloxifene administration in premenopausal women with uterine leiomyomas: a pilot study. J Clin Endocrinol Metab 87, 3603-3608). This stimulation of the HPG axis is associated with penetration of the blood-brain barrier and penetration of the brain. To investigate the ovary-stimulating properties of the claimed pharmacological compounds, hormonally intact adult rats were treated with the substances daily for a period of 10 days. The study end point is the quotient of peripheral estradiol values after and before treatment.
Selected claimed pharmacological substances were investigated as described for their stimulating action on the HPG axis or ovarian estradiol synthesis. The selected substances show markedly less stimulation of the ovaries than the control compound raloxifene at equal dosages (cf. Table 5).

With `CN(CCCCCCC1=C(c2ccc(F)c(O)c2)CCCc2cc(O)ccc21)CCCS(=O)(=O)CCCC(F)(F)C(F)(F)F` [Example 29, 8-(4-Fluoro-3-hydroxyphenyl)-9-[6-(methyl{3-[(4,4,5,5,5-pentafluoropentyl)sulphonyl]propyl}amino)hexyl]-6,7-dihydro-5H-benzo[7]annulen-3-ol], the IC50 in data set [1] is 3 nM. In addition, in data set [2], the inhibition in vivo at 0.3 mg/kg stood at 61%. Moreover, the “Stimulation of ovarian oestrogen synthesis: factor at a dose of 3 mg/kg rat” value in data set [3] amounted to 1.1.
The corresponding values for `CN(CCCCCC1=C(c2ccc(O)c(F)c2)CCCc2cc(O)ccc21)CCCS(=O)(=O)CCCC(F)(F)C(F)(F)F` [Example 38, 8-(3-Fluoro-4-hydroxyphenyl)-9-[5-(methyl{3-[(4,4,5,5,5-pentafluoropentyl)sulphonyl]propyl}amino)pentyl]-6,7-dihydro-5H-benzo[7]annulen-3-ol] are 2 nM, 57% and 1.7.

One may read the IC50 as the concentration needed to halve the response being measured.
